The source of these data is patent publication US9371320B2, “Heterocyclic compound” (TAKEDA PHARMACEUTICAL COMPANY LIMITED, priority 2012, dated 2016).

Like-named read-outs stand apart in the source and are kept apart here.

For one test, the target named is T1, JAK1 (Homo sapiens, UniProt P23458).
T1 construct: purchased Invitrogen
Put plainly: JAK1 enzyme inhibition test (LANCE method). As to conditions: for inhibition at 1 µM: test compound 1 μM, read-out: Inhibitory rate (%) JAK1 1 μM; for inhibition at 10 µM: read-out: Inhibitory rate (%) JAK1 10 μM. The test is classed as biochemical. The essentials: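 Reactions ran 1 h at room temperature in HEPES pH 7.5/MgCl2 buffer, with ATP solution at 150 μM and JAK1 and ULight peptide solutions at 187.5 ng/mL and 300 nM. Reactions were stopped with EDTA, and phosphorylation was read by Eu antibody time-resolved fluorescence at 665 nm. Inhibition was scaled to a no-enzyme control as 100%.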

The next test addresses T2, Tyk2 (Homo sapiens, UniProt P29597).
T2 construct: purchased Invitrogen
As to the kind of experiment: Tyk2 enzyme inhibition test (LANCE method). As to conditions: for inhibition at 1 µM: test compound 1 μM, read-out: Inhibitory rate (%) Tyk2 1 μM; for inhibition at 10 µM: test compound 10 μM, read-out: Inhibitory rate (%) Tyk2 10 μM. The test is classed as biochemical. The essentials: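 LANCE TR-FRET read-out (ex 340/em 665 nm, 100 μs delay) of ULight-JAK1 phosphorylation, with no-enzyme wells as 100% inhibition. Reaction run 1 h at room temperature in pH 7.5 HEPES buffer; enzyme 375 ng/mL, substrate 300 nM and ATP 30 μM are solution concentrations before mixing.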

The mark [1] stands for this setting: test compound 10 μM (Ex. 182-220), beside Tyk2 1 μM.

T1 sequence (P23458 whole entry): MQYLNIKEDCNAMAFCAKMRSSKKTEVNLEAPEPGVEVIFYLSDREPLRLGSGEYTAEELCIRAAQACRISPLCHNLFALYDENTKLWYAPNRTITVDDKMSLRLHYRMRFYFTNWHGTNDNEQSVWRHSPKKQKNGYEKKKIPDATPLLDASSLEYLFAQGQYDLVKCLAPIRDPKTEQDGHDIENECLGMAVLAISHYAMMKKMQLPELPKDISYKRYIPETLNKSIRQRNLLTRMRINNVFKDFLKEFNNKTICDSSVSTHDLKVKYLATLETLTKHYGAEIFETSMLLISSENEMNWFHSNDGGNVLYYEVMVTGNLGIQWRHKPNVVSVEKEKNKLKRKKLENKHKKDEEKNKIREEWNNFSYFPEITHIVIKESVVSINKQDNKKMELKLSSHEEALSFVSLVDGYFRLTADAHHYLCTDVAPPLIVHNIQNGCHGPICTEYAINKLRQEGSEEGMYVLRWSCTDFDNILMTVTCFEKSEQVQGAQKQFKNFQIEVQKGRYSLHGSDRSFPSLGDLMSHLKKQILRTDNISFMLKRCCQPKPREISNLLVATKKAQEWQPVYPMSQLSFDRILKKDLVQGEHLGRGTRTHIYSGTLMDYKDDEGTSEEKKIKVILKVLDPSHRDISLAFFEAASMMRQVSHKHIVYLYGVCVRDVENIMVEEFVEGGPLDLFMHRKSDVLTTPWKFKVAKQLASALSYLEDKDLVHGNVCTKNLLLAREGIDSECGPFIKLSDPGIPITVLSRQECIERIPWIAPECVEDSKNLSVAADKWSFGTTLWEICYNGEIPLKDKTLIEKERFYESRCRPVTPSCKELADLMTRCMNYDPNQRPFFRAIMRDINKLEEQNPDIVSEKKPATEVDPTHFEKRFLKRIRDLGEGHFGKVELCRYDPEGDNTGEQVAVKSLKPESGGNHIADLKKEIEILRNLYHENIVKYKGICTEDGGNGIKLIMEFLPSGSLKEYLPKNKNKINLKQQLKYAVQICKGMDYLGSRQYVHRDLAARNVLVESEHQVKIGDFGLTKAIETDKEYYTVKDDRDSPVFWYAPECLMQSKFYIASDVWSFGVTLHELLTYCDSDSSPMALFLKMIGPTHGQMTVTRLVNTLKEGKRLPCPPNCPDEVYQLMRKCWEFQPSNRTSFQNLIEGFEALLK
T2 sequence (P29597 whole entry): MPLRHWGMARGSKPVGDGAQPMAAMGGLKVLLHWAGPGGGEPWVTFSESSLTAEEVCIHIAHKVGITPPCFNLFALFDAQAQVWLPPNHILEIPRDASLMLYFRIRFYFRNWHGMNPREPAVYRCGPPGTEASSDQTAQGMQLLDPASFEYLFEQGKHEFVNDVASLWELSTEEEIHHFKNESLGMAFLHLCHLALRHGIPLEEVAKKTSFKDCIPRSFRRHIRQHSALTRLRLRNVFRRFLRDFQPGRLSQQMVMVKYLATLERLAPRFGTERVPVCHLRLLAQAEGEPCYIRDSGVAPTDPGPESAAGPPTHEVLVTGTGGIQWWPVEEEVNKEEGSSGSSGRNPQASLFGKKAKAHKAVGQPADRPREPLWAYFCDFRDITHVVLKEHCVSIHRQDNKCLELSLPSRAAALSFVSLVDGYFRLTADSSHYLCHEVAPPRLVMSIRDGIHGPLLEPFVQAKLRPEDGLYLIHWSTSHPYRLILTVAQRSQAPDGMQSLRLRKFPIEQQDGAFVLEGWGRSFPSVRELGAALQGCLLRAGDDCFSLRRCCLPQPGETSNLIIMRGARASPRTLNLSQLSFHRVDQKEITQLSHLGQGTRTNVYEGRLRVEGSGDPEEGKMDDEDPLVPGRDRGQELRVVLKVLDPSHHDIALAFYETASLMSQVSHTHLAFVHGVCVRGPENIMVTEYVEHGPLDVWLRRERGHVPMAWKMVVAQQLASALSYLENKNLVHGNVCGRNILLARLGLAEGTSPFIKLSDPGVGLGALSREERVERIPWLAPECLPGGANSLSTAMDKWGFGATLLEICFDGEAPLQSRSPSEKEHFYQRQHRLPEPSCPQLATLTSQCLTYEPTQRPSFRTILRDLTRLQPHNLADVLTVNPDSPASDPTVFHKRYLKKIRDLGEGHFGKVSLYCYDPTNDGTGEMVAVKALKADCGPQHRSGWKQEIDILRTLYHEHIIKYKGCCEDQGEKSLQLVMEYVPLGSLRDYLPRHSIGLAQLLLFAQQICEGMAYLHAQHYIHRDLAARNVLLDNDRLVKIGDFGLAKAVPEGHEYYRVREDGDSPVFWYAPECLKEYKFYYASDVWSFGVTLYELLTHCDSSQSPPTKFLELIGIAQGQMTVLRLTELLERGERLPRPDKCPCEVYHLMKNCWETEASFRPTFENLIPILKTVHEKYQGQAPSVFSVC

`NC(=O)Cc1ccc(-c2nn(-c3c(F)cccc3F)c3c(Cl)c[nH]c(=O)c23)cc1` [Example 124, 2-(4-(7-chloro-1-(2,6-difluorophenyl)-4-oxo-4,5-dihydro-1H-pyrazolo[4,3-c]pyridin-3-yl)phenyl)acetamide]: the inhibition at 1 µM at JAK1 came out at 89%; on Tyk2, 98%.
Take `N#CCNC(=O)c1cc(-c2nn(-c3c(F)cccc3F)c3c(Cl)c[nH]c(=O)c23)cs1` [Example 191, 4-(7-chloro-1-(2,6-difluorophenyl)-4-oxo-4,5-dihydro-1H-pyrazolo[4,3-c]pyridin-3-yl)-N-(cyanomethyl)thiophene-2-carboxamide]: at JAK1 (setting [1]), the inhibition at 10 µM is 98%. The inhibition at 1 µM at Tyk2 came to 100%.
`Cn1cnc2cc(-c3nn(-c4c(F)cccc4F)c4c(Cl)c[nH]c(=O)c34)ccc21` [Example 226, 7-chloro-1-(2,6-difluorophenyl)-3-(1-methyl-1H-benzimidazol-5-yl)-1,5-dihydro-4H-pyrazolo[4,3-c]pyridin-4-one]: the inhibition at 1 µM on JAK1 is 40%; at Tyk2, 98%.
For `N#Cc1cc(-c2nn(C3CCCC3)c3cc[nH]c(=O)c23)cs1` [Example 14, 4-(1-cyclopentyl-4-oxo-4,5-dihydro-1H-pyrazolo[4,3-c]pyridin-3-yl)thiophene-2-carbonitrile] the same measures were 99% and 98%.
Regarding `NC(=O)Cc1ccc(-c2nn(C3CCCC3)c3cc[nH]c(=O)c23)cc1` [Example 182, 2-(4-(1-cyclopentyl-4-oxo-4,5-dihydro-1H-pyrazolo[4,3-c]pyridin-3-yl)phenyl)acetamide], at JAK1 (setting [1]), the inhibition at 10 µM worked out at 98%. In addition, the inhibition at 1 µM at Tyk2 came out at 98%.
Take `NS(=O)(=O)c1ccc(-c2cn([C@H]3CC[C@H](O)CC3)c3cc[nH]c(=O)c23)cc1` [Example 31, 4-(1-(trans-4-hydroxycyclohexyl)-4-oxo-4,5-dihydro-1H-pyrrolo[3,2-c]pyridin-3-yl)benzenesulfonamide]: the inhibition at 1 µM on JAK1 amounted to 95%; on Tyk2 it was 90%.
As for `O=C1Cc2ccc(-c3nn(-c4c(F)cccc4F)c4c(Cl)c[nH]c(=O)c34)cc2N1` [Example 227, 7-chloro-1-(2,6-difluorophenyl)-3-(2-oxo-2,3-dihydro-1H-indol-6-yl)-1,5-dihydro-4H-pyrazolo[4,3-c]pyridin-4-one], the inhibition at 1 µM is 54% at JAK1 and 97% at Tyk2.
For `O=C(NCCO)c1ccc(-c2nn(-c3c(F)cccc3F)c3cc[nH]c(=O)c23)cc1` [Example 237, 4-(1-(2,6-difluorophenyl)-4-oxo-4,5-dihydro-1H-pyrazolo[4,3-c]pyridin-3-yl)-N-(2-hydroxyethyl)benzamide] the same measures were 87% and 99%.
`O=C(NCCO)c1cc(-c2nn(C3CCCC3)c3cc[nH]c(=O)c23)cs1` [Example 157, 4-(1-cyclopentyl-4-oxo-4,5-dihydro-1H-pyrazolo[4,3-c]pyridin-3-yl)-N-(2-hydroxyethyl)thiophene-2-carboxamide]: the inhibition at 1 µM came out at 100% on JAK1 and 99% on Tyk2.
For `CNC(=O)c1ccc(F)c(-c2nn(-c3c(F)cccc3F)c3cc[nH]c(=O)c23)c1` [Example 272, 3-(1-(2,6-difluorophenyl)-4-oxo-4,5-dihydro-1H-pyrazolo[4,3-c]pyridin-3-yl)-4-fluoro-N-methylbenzamide], the figures for the inhibition at 10 µM on JAK1 (test compound 10 μM) and on Tyk2 were 12% and 25%, respectively.
`O=c1[nH]ccc2c1c(-c1ccccc1)nn2C1CCCC1` [Example 43, 1-cyclopentyl-3-phenyl-1,5-dihydro-4H-pyrazolo[4,3-c]pyridin-4-one]: the inhibition at 1 µM stood at 87% at JAK1 and 91% at Tyk2.
As to `O=C(c1cc(-c2nn(-c3c(F)cccc3F)c3c(Cl)c[nH]c(=O)c23)cs1)N1CCOCC1` [Example 192, 7-chloro-1-(2,6-difluorophenyl)-3-(5-(morpholin-4-ylcarbonyl)-3-thienyl)-1,5-dihydro-4H-pyrazolo[4,3-c]pyridin-4-one], the inhibition at 10 µM at JAK1 (setting [1]) stood at 94%. Moreover, the inhibition at 1 µM at Tyk2 came out at 99%.
Consider `NC(=O)Cc1ccc(-c2nn(-c3c(F)cccc3F)c3cc[nH]c(=O)c23)cc1` [Example 72, 2-(4-(1-(2,6-difluorophenyl)-4-oxo-4,5-dihydro-1H-pyrazolo[4,3-c]pyridin-3-yl)phenyl)acetamide], for which the figures for the inhibition at 1 µM on JAK1 and on Tyk2 were 97% and 99%, respectively.
For `NS(=O)(=O)c1ccc(-c2nn(CC3CCOC3)c3cc[nH]c(=O)c23)cc1` (stereo not drawn) [Example 115, 4-(4-oxo-1-(tetrahydrofuran-3-ylmethyl)-4,5-dihydro-1H-pyrazolo[4,3-c]pyridin-3-yl)benzenesulfonamide] the same measures were 87% and 66%.
Take `O=c1[nH]ccc2c1c(C1=CCCCC1)nn2C1CCCC1` [Example 41, 3-(cyclohex-1-en-1-yl)-1-cyclopentyl-1,5-dihydro-4H-pyrazolo[4,3-c]pyridin-4-one]: the figures for the inhibition at 10 µM on JAK1 (test compound 10 μM) and on Tyk2 were 38% and 49%, respectively.
Regarding `CNC(=O)COc1ccc(-c2nn(-c3c(F)cccc3F)c3c(Cl)c[nH]c(=O)c23)cc1` [Example 221, 2-(4-(7-chloro-1-(2,6-difluorophenyl)-4-oxo-4,5-dihydro-1H-pyrazolo[4,3-c]pyridin-3-yl)phenoxy)-N-methylacetamide], the results for the inhibition at 1 µM on JAK1 and on Tyk2 were 80% and 99%, respectively.
The matching figures for `N#Cc1c[nH]c(=O)c2c(-c3ccc(OCC(N)=O)cc3)cn(C3CCCC3)c12` [Example 120, 2-(4-(7-cyano-1-cyclopentyl-4-oxo-4,5-dihydro-1H-pyrrolo[3,2-c]pyridin-3-yl)phenoxy)acetamide]: 88% and 98%.
For `O=c1[nH]cc(Br)c2c1c(-c1cn[nH]c1)nn2-c1c(F)cccc1F` [Example 176, 7-bromo-1-(2,6-difluorophenyl)-3-(1H-pyrazol-4-yl)-1,5-dihydro-4H-pyrazolo[4,3-c]pyridin-4-one] the same measures were 95% and 100%.
For `N#CCc1cc(-c2cn(C3CCCC3)c3c(C#N)c[nH]c(=O)c23)cs1` [Example 93, 3-(5-(cyanomethyl)-3-thienyl)-1-cyclopentyl-4-oxo-4,5-dihydro-1H-pyrrolo[3,2-c]pyridine-7-carbonitrile] the same measures were 98% and 99%.
On to `N#CCc1ccc(-c2cn(C3CCOCC3)c3cc[nH]c(=O)c23)cc1` [Example 25, (4-(4-oxo-1-(tetrahydro-2H-pyran-4-yl)-4,5-dihydro-1H-pyrrolo[3,2-c]pyridin-3-yl)phenyl)acetonitrile], for which the inhibition at 1 µM at JAK1 is 77%; on Tyk2, 71%.
The matching figures for `O=c1[nH]ccc2c1c(-c1cn[nH]c1)nn2-c1c(F)cccc1F` [Example 151, 1-(2,6-difluorophenyl)-3-(1H-pyrazol-4-yl)-1,5-dihydro-4H-pyrazolo[4,3-c]pyridin-4-one]: 98% and 98%.
As to `N#Cc1c[nH]c(=O)c2c(-c3cccc(N4CCOCC4)c3)cn(C3CCCC3)c12` [Example 140, 1-cyclopentyl-3-(3-(morpholin-4-yl)phenyl)-4-oxo-4,5-dihydro-1H-pyrrolo[3,2-c]pyridine-7-carbonitrile], the inhibition at 1 µM at JAK1 was determined as 17%; at Tyk2 it was 91%.
For `O=c1[nH]ccc2c1c(-c1cccc(CN3CCCC3)c1)nn2-c1c(F)cccc1F` [Example 288, 1-(2,6-difluorophenyl)-3-(3-(pyrrolidin-1-ylmethyl)phenyl)-1,5-dihydro-4H-pyrazolo[4,3-c]pyridin-4-one] the same measures were 55% and 94%.
The matching figures for `NS(=O)(=O)c1ccc(-c2cn(CC(O)CO)c3cc[nH]c(=O)c23)cc1` (stereo not drawn) [Example 91, 4-(1-(2,3-dihydroxypropyl)-4-oxo-4,5-dihydro-1H-pyrrolo[3,2-c]pyridin-3-yl)benzenesulfonamide]: 19% and 92%.
In the case of `O=c1[nH]cc(Cl)c2c1c(C1CC1)nn2-c1c(F)cccc1F` [Example 208, 7-chloro-3-cyclopropyl-1-(2,6-difluorophenyl)-1,5-dihydro-4H-pyrazolo[4,3-c]pyridin-4-one], the inhibition at 10 µM is 28% on JAK1 (test compound 10 μM) and 83% on Tyk2.
As for `Cc1ccccc1-n1nc(-c2ccc(S(N)(=O)=O)cc2)c2c(=O)[nH]ccc21` [Example 211, 4-(1-(2-methylphenyl)-4-oxo-4,5-dihydro-1H-pyrazolo[4,3-c]pyridin-3-yl)benzenesulfonamide], on JAK1 (setting [1]), the inhibition at 10 µM was found to be 99%. On Tyk2, the inhibition at 1 µM turned out to be 98%.
As to `N#Cc1cccc(F)c1-n1nc(-c2ccc(N3CCOCC3)nc2)c2c(=O)[nH]ccc21` [Example 306, 3-fluoro-2-(3-(6-(morpholin-4-yl)pyridin-3-yl)-4-oxo-4,5-dihydro-1H-pyrazolo[4,3-c]pyridin-1-yl)benzonitrile], the inhibition at 1 µM on JAK1 was 90%; on Tyk2, 98%.
